According to patent US20260232597A1, “PHARMACEUTICAL COMPOSITION OF TRAMETINIB AND PROCESS OF PREPARATION THEREOF” (ALEMBIC PHARMACEUTICALS LIMITED, priority 2023, published 2026):
In brackets after ≈: the same amount, converted by molar mass.

Assays:
[1] = as disclosed in US'304 patent; cited from earlier work
[2] = cited from earlier work
[3] = Saturation solubility of drug substance in different dissolution media (incubator shaker, 24 hrs, HPLC); assay type: physicochemical; conditions: 37° C.; for solubility at 24 h: thermodynamic from solid
Protocol: Solubility study of drug substance was carried out in different dissolution media. The saturated solutions of drug substance were prepared in the recommended dissolution media. Initial pH of the saturated solutions was noted. Then the solutions were allowed to shake for 24 hours in the incubator shaker at 150 RPM. The temperature was kept around 37° C.±0.5° C. After 24 hours of shaking, pH of saturated solutions was noted. Further dilutions of these solutions were made as per the standard concentration. Analysis was carried out using HPLC technique. The sample was prepared in triplicates for saturation solubility determination.

[4] = Dissolution studies for Example 2 (TA0 to TA14); assay type: physicochemical; conditions: 4.5 Acetate Buffer + 0.75% SLS, Type II, 500 mL, 60 RPM
[5] = pH 4.5 Acetate Buffer + 0.75% SDS
[6] = pH 6.8 Phosphate Buffer + 0.75% SDS
[7] = pH 7.0 Phosphate Buffer + 0.75% SDS

CC(=O)Nc1cccc(-n2c(=O)n(C3CC3)c(=O)c3c(Nc4ccc(I)cc4F)n(C)c(=O)c(C)c32)c1 [Trametinib, N-(3-{3-Cyclopropyl-5-[(2-fluoro-4-iodophenyl)amino]-6,8-dimethyl-2,4,7-trioxo-3,4,6,7-tetrahydropyrido[4,3-d]pyrimidin-1 (2H)-yl}phenyl) acetamide]
Exposure and absorption upon in vivo administration [1]: poor exposure and absorption
Solubility relative to dimethyl sulfoxide solvate ([2]; as disclosed in US'304 patent): much less soluble than dimethyl sulfoxide solvate of Trametinib
Solubility mg/250 mL ([3]; 0.1N HCl + 0.75% SDS): 17 mg/250 mL
Solubility mg/500 mL ([3]; 0.1N HCl + 0.75% SDS): 33 mg/500 mL
Solubility mg/900 mL ([3]; 0.1N HCl + 0.75% SDS): 60 mg/900 mL
Solubility mg/250 mL ([3]; 0.1N HCl): 4.2 mg/250 mL
Solubility mg/500 mL ([3]; 0.1N HCl): 8 mg/500 mL
Solubility mg/900 mL ([3]; 0.1N HCl): 15 mg/900 mL
solubility at 24 h ([3]; aqueous buffer, pH 4.5 Acetate Buffer): 10 µg/mL (≈ 16.2 µM)
solubility at 24 h ([3]; aqueous buffer, pH 6.8 Phosphate Buffer): 20 µg/mL (≈ 32.5 µM)
solubility at 24 h ([3]; aqueous with cosolvent or surfactant or cyclodextrin, 0.1N HCl + 0.75% SDS): 70 µg/mL
solubility at 24 h ([3]; aqueous with cosolvent or surfactant or cyclodextrin, pH 4.5 Acetate Buffer + 0.75% SDS): 100 µg/mL
solubility at 24 h ([3]; aqueous with cosolvent or surfactant or cyclodextrin, pH 6.8 Phosphate Buffer + 0.75% SDS): 10 µg/mL
solubility at 24 h ([3]; aqueous with cosolvent or surfactant or cyclodextrin, pH 7.0 Phosphate Buffer + 0.75% SDS): 10 µg/mL
Solubility mg/250 mL [3, 5]: 24 mg/250 mL
Solubility mg/500 mL [3, 5]: 48 mg/500 mL
Solubility mg/900 mL [3, 5]: 87 mg/900 mL
Solubility mg/250 mL ([3]; pH 4.5 Acetate Buffer): 2.5 mg/250 mL
Solubility mg/500 mL ([3]; pH 4.5 Acetate Buffer): 5 mg/500 mL
Solubility mg/900 mL ([3]; pH 4.5 Acetate Buffer): 9 mg/900 mL
Solubility mg/250 mL [3, 6]: 3 mg/250 mL
Solubility mg/500 mL [3, 6]: 5 mg/500 mL
Solubility mg/900 mL [3, 6]: 9 mg/900 mL
Solubility mg/250 mL ([3]; pH 6.8 Phosphate Buffer): 4.2 mg/250 mL
Solubility mg/500 mL ([3]; pH 6.8 Phosphate Buffer): 8 mg/500 mL
Solubility mg/900 mL ([3]; pH 6.8 Phosphate Buffer): 15 mg/900 mL
Solubility mg/250 mL [3, 7]: 3 mg/250 mL
Solubility mg/500 mL [3, 7]: 5 mg/500 mL
Solubility mg/900 mL [3, 7]: 9 mg/900 mL
Solubility mg/250 mL ([3]; pH 7.0 Phosphate Buffer): 0.0 mg/250 mL
Solubility mg/500 mL ([3]; pH 7.0 Phosphate Buffer): 0 mg/500 mL
Solubility mg/900 mL ([3]; pH 7.0 Phosphate Buffer): 0 mg/900 mL
solubility at 24 h ([3]; simulated gastric fluid, 0.1N HCl): 20 µg/mL (≈ 32.5 µM)
% DR ([4]; 5 mins): 9%
% DR ([4]; 10 mins): 11%
% DR ([4]; 15 mins): 12%
% DR ([4]; 20 mins): 13%
% DR ([4]; 30 mins): 14%
% DR ([4]; 45 mins): 16%
% DR ([4]; 60 mins): 17%
% DR ([4]; 90 mins): 19%
% DR ([4]; 120 mins): 21%

CC(=O)Nc1cccc(-n2c(=O)n(C3CC3)c(=O)c3c(Nc4ccc(I)cc4F)n(C)c(=O)c(C)c32)c1.CC(=O)O [TA2, Trametinib acetic acid solvate]
% DR ([4]; 5 mins): 2%
% DR ([4]; 10 mins): 3%
% DR ([4]; 15 mins): 5%
% DR ([4]; 20 mins): 7%
% DR ([4]; 30 mins): 9%
% DR ([4]; 45 mins): 13%
% DR ([4]; 60 mins): 16%
% DR ([4]; 90 mins): 23%
% DR ([4]; 120 mins): 29%

CC(=O)Nc1cccc(-n2c(=O)n(C3CC3)c(=O)c3c(Nc4ccc(I)cc4F)n(C)c(=O)c(C)c32)c1.C[S+](C)[O-] [Trametinib DMSO, Trametinib dimethyl sulfoxide]
Solubility in aqueous media ([2]; pH range of 2 to 8): practically insoluble
Average solubility ([3]; 0.1N HCl + 0.75% SDS): 50 µg/mL
Solubility mg/250 mL ([3]; 0.1N HCl + 0.75% SDS): 11.7 mg/250 mL
Solubility mg/500 mL ([3]; 0.1N HCl + 0.75% SDS): 23 mg/500 mL
Solubility mg/900 mL ([3]; 0.1N HCl + 0.75% SDS): 42 mg/900 mL
Solubility mg/250 mL ([3]; 0.1N HCl): 0.8 mg/250 mL
Solubility mg/500 mL ([3]; 0.1N HCl): 2 mg/500 mL
Solubility mg/900 mL ([3]; 0.1N HCl): 3 mg/900 mL
Average solubility [3, 5]: 240 µg/mL
Solubility mg/250 mL [3, 5]: 60.0 mg/250 mL
Solubility mg/500 mL [3, 5]: 120 mg/500 mL
Solubility mg/900 mL [3, 5]: 216 mg/900 mL
Solubility mg/250 mL ([3]; pH 4.5 Acetate Buffer): 0.0 mg/250 mL
Solubility mg/500 mL ([3]; pH 4.5 Acetate Buffer): 0 mg/500 mL
Solubility mg/900 mL ([3]; pH 4.5 Acetate Buffer): 0 mg/900 mL
Average solubility [3, 6]: 70 µg/mL
Solubility mg/250 mL [3, 6]: 18.3 mg/250 mL
Solubility mg/500 mL [3, 6]: 37 mg/500 mL
Solubility mg/900 mL [3, 6]: 66 mg/900 mL
Solubility mg/250 mL ([3]; pH 6.8 Phosphate Buffer): 0.0 mg/250 mL
Solubility mg/500 mL ([3]; pH 6.8 Phosphate Buffer): 0 mg/500 mL
Solubility mg/900 mL ([3]; pH 6.8 Phosphate Buffer): 0 mg/900 mL
Average solubility [3, 7]: 70 µg/mL
Solubility mg/250 mL [3, 7]: 18.3 mg/250 mL
Solubility mg/500 mL [3, 7]: 37 mg/500 mL
Solubility mg/900 mL [3, 7]: 66 mg/900 mL
Solubility mg/250 mL ([3]; pH 7.0 Phosphate Buffer): 0.0 mg/250 mL
Solubility mg/500 mL ([3]; pH 7.0 Phosphate Buffer): 0 mg/500 mL
Solubility mg/900 mL ([3]; pH 7.0 Phosphate Buffer): 0 mg/900 mL
% DR ([4]; 5 mins): 27%
% DR ([4]; 10 mins): 34%
% DR ([4]; 15 mins): 38%
% DR ([4]; 20 mins): 39%
% DR ([4]; 30 mins): 41%
% DR ([4]; 45 mins): 42%
% DR ([4]; 60 mins): 43%
% DR ([4]; 90 mins): 44%
% DR ([4]; 120 mins): 44%
